# Experimental data: patent US5354549A, “Iodinated esters” (Nycomed Imaging AS, priority 1987, dated 1994)
# Where two headings read alike, the source gives them in different places.
# Assays:
# [1] = In vitro biodegradation in Seronorm (release of Isopaque analysed by HPLC); format: in vitro ADME; settings: pH 7.4, 37° C.
# Method: (§1) The powdered product of Example 1 is suspended in Seronorm (5 mg/ml) (Seronorm is a trade mark of Nycomed AS) at pH 7.4 and agitated at 37° C. As a control the experiment is also performed in phosphate buffered saline (PBS) at pH 7.4. At different time points samples are taken from the supernatant after centrifugation of the vial (4,000 rpm, 10 minutes). The release of Isopaque (5-(N-acetylamino)-3-(N-acetyl-N-methylamino)-2,4,6-triiodobenzenecarboxylic acid) is analysed by HPLC. More than 50% of the substance is hydrolysed during 6 hours and after 24 hours 90% is hydrolysed.
# (§2) The powdered product of Example 3 is suspended in Seronorm (0.5 mg/ml) at pH 7.4 and agitated at 37° C. As a control the experiment is also performed in phosphate buffered saline (PBS) at pit 7.4. At different time points samples are taken from the supernatant after centrifugation of the vial (4,000 rpm, 10 minutes). The release of Isopaque (5-(N-acetylamino)-3-(N-acetyl-N-methylamino)-2,4,6-triiodobenzenecarboxylic acid) is analysed by HPLC. 4.1% of the substance is hydrolysed during 24 hours. In PBS 0.12% is hydrolysed during 72 hours.
# as §2, with “Example 10” for “Example 3”, “at pH” for “at pit”, “HPLC. […]” for “HPLC. 4.1% of the substance is hydrolysed during 24 hours.”, “PBS 58%” for “PBS 0.12%”
# as §2, with “Example 4” for “Example 3”, “Seronorm at” for “Seronorm”, “mg/ml)” for “mg/ml) at”, “at pH” for “at pit”, “HPLC. […] In PBS 34% was” for “HPLC. 4.1% of the substance is”, “hours.” for “hours. In PBS 0.12% is hydrolysed during 72 hours.”
# [2] = In vitro biodegradation, control in phosphate buffered saline (PBS); format: in vitro ADME; settings: for degraded at 72 h: pH 7.4, 72 hours
# Method: as §1, §2
# as §2, with “Example 10” for “Example 3”, “at pH” for “at pit”, “HPLC. […]” for “HPLC. 4.1% of the substance is hydrolysed during 24 hours.”, “PBS 58%” for “PBS 0.12%”
# as §2, with “Example 4” for “Example 3”, “Seronorm at” for “Seronorm”, “mg/ml)” for “mg/ml) at”, “at pH” for “at pit”, “HPLC. […] In PBS 34% was” for “HPLC. 4.1% of the substance is”, “hours.” for “hours. In PBS 0.12% is hydrolysed during 72 hours.”
# [3] = read-out: substance hydrolysed in PBS
structure (smiles),measurement,setting,value
"CC(=O)Nc1c(I)c(C(=O)OCOC(=O)C(C)(C)C)c(I)c(N(C)C(C)=O)c1I [Example 1, Pivaloyloxymethyl 5-(N-acetylamino)-3-(N-acetyl-N-methylamino)-2,4,6-triiodobenzenecarboxylate]",metabolised at 6 h,"[1]; 5 mg/ml, 6 hours, read-out: substance hydrolysed",> 50%
same,metabolised at 24 h,"[1]; 5 mg/ml, read-out: substance hydrolysed",90%
same,hydrolysis in PBS,"[2]; pH 7.4, control",no hydrolysis could be detected
"CC(=O)Nc1c(I)c(C(=O)OC(C)OC(=O)C(C)(C)C)c(I)c(N(C)C(C)=O)c1I (stereo not shown) [Example 3, 1-(Pivaloylyloxy)ethyl 5-(N-acetylamino)-3-(N-acetyl-N-methyl-amino)-2,4,6-triiodobenzenecarboxylate]",metabolised at 24 h,"[1]; 0.5 mg/ml, read-out: substance hydrolysed",4.1%
same,degraded at 72 h,[2]; [3],0.12%
"CC(=O)Nc1c(I)c(C(=O)OC(C)OC(C)=O)c(I)c(N(C)C(C)=O)c1I (stereo not shown) [Example 4, 1-(Acetyloxy)ethyl 5-(N-acetylamino)-3-(N-acetyl-N-methylamino)-2,4,6-triiodobenzenecarboxylate]",metabolised at 2 h,"[1]; 0.5 mg/ml, 2 hour incubation, read-out: substance hydrolysed",29%
same,hydrolysis,"[1]; 0.5 mg/ml, after 24 hours",hydrolysis is complete
same,degraded at 24 h,"[2]; pH 7.4, 24 hours, read-out: substance hydrolysed in PBS",34%
"CC(=O)Nc1c(I)c(C(=O)OCOC(C)=O)c(I)c(N(C)C(C)=O)c1I [Example 10, Acetyloxvmethyl 5-(N-acetylamino)-3-(N-acetyl-N-methylamino)-2,4,6-triiodobenzenecarboxylate]",hydrolysis of substrate,"[1]; 0.5 mg/ml, after 2 hours",completely hydrolysed
same,degraded at 72 h,[2]; [3],58%
